From patent publication US20130008801A1, “METHODS AND COMPOSITIONS FOR APPLICATIONS RELATED TO MICROBIOLOGICALLY INFLUENCED CORROSION” (priority 2010, published 2013)

What was measured:
[1] = system: planktonic or sessile SRB; test: SRB growth in the culture medium with MIC promoter; format: cell-based, Desulfovibrio desulfuricans (ATCC 7757); conditions: culture medium used in this work; repeated experiments
From the text: Second, the BCSR theory points to the existence of “MIC promoters.” Guided by this, we have successfully found a class of chemicals that can greatly accelerate BCSR leading to much more severe MIC pitting. […] This discovery leads to a new aspect of MIC monitoring, and a non-biocidal mitigation method that may even allow us to live with corrosive microbes with much reduced MIC pitting when the promoter's MIC acceleration effect is inhibited.
(§1) The BCSR theory indicates a bottleneck in MIC due to SRB. To resolve the bottleneck, an electron carrier or mediator was added as an MIC “promoter” into 100 ml anaerobic vials containing SRB and carbon steel coupons. This MIC promoter is not corrosive by itself. After a week of SRB growth, coupons were examined using SEM and IFM (Infinite Focus Microscopy). Desulfovibrio desulfuricans ATCC7757 was used to represent SRB in this work. […] Liquid medium was deoxygenated using nitrogen sparging. To study the pits on a carbon steel coupon, the coupon surface was cleaned using an acid solution before SEM and IFM.

[2] = system: Desulfovibrio desulfuricans ATCC7757 (SRB) on carbon steel coupons; test: MIC pitting test: SRB with carbon steel coupons in anaerobic vials, pits examined by SEM and IFM; format: cell-based, Desulfovibrio desulfuricans (ATCC 7757); conditions: promoter added to the test medium at a low concentration; C1018 carbon steel coupon, ATCC 1249 medium, 37° C., 7 days; versus no promoter (FIG. 2)
Description: Y-axis is pit depth in microns and x-axis pit position in microns.
as §1

MIC pit depth [2]: dramatic MIC pit depth increase
SMILES: Cc1cc2nc3c(=O)[nH]c(=O)nc-3n(C[C@H](O)[C@H](O)[C@H](O)CO)c2cc1C [riboflavin]
planktonic or sessile SRB growth [1]: did not promote planktonic or sessile SRB growth
